Data published in the supplement of paper PMC10307832.

Assays:
Experiment in all cases: relative viability (nuclei count vs DMSO), 5 days (fraction); higher = more cells survive
[1] = system: 201T
Outline: (§1)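 For relative viability, nuclei counts in treated wells were divided by those in vehicle wells. Lung cancer cell lines had been pin-tool dosed in 1536-well plates the day after seeding and cultured for 5 days, then fixed and stained in one step (final 0.05% Triton X-100, 1% formaldehyde, 1 ug/ml Hoechst) and imaged at 4×. Doses were one drug alone or a fixed anchor-drug dose plus five library-drug doses (not always all listed) in √10 steps, and values are duplicate-plate medians.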

[2] = system: A-427
Outline: as §1

[3] = system: BEN
Outline: as §1

[4] = system: CAL-12T
Outline: as §1

[5] = system: H3255
Outline: as §1

[6] = system: LC-2-ad
Outline: as §1

[7] = system: LCLC-97TM1
Outline: as §1

[8] = system: NCI-H1650
Outline: as §1

[9] = system: NCI-H1651
Outline: as §1

[10] = system: NCI-H1915
Outline: as §1

[11] = system: NCI-H1944
Outline: as §1

O=c1cc(N2CCOCC2)oc2c(-c3cccc4c3sc3ccccc34)cccc12 + CC(=O)Nc1cccc(-n2c(=O)n(C3CC3)c(=O)c3c(Nc4ccc(I)cc4F)n(C)c(=O)c(C)c32)c1 [Trametinib] (partner 0.02 µM)
relative viability ([1]; first compound 0.01 µM): 0.708
relative viability ([1]; first compound 0.03162 µM): 0.683
relative viability ([1]; first compound 0.1 µM): 0.69
relative viability ([1]; first compound 0.3162 µM): 0.721
relative viability ([1]; first compound 1 µM): 0.701
relative viability ([2]; first compound 0.01 µM): 0.869
relative viability ([2]; first compound 0.03162 µM): 0.775
relative viability ([2]; first compound 0.1 µM): 0.747
relative viability ([2]; first compound 0.3162 µM): 0.812
relative viability ([2]; first compound 1 µM): 0.695
relative viability ([3]; first compound 0.01 µM): 1.06
relative viability ([3]; first compound 0.03162 µM): 1.07
relative viability ([3]; first compound 0.1 µM): 1.06
relative viability ([3]; first compound 0.3162 µM): 1.01
relative viability ([3]; first compound 1 µM): 0.943
relative viability ([4]; first compound 0.01 µM): 0.334
relative viability ([4]; first compound 0.03162 µM): 0.417
relative viability ([4]; first compound 0.1 µM): 0.354
relative viability ([4]; first compound 0.3162 µM): 0.381
relative viability ([4]; first compound 1 µM): 0.363
relative viability ([5]; first compound 0.01 µM): 0.548
relative viability ([5]; first compound 0.03162 µM): 0.691
relative viability ([5]; first compound 0.1 µM): 0.675
relative viability ([5]; first compound 0.3162 µM): 0.703
relative viability ([5]; first compound 1 µM): 0.552
relative viability ([6]; first compound 0.01 µM): 0.982
relative viability ([6]; first compound 0.03162 µM): 0.877
relative viability ([6]; first compound 0.1 µM): 0.965
relative viability ([6]; first compound 0.3162 µM): 0.899
relative viability ([6]; first compound 1 µM): 0.918
relative viability ([7]; first compound 0.01 µM): 0.197
relative viability ([7]; first compound 0.03162 µM): 0.161
relative viability ([7]; first compound 0.1 µM): 0.173
relative viability ([7]; first compound 0.3162 µM): 0.173
relative viability ([7]; first compound 1 µM): 0.193
relative viability ([8]; first compound 0.01 µM): 0.526
relative viability ([8]; first compound 0.03162 µM): 0.643
relative viability ([8]; first compound 0.1 µM): 0.782
relative viability ([8]; first compound 0.3162 µM): 0.571
relative viability ([8]; first compound 1 µM): 0.517
relative viability ([9]; first compound 0.01 µM): 0.816
relative viability ([9]; first compound 0.03162 µM): 0.818
relative viability ([9]; first compound 0.1 µM): 0.817
relative viability ([9]; first compound 0.3162 µM): 0.819
relative viability ([9]; first compound 1 µM): 0.871
relative viability ([10]; first compound 0.01 µM): 0.32
relative viability ([10]; first compound 0.03162 µM): 0.32
relative viability ([10]; first compound 0.1 µM): 0.299
relative viability ([10]; first compound 0.3162 µM): 0.3
relative viability ([10]; first compound 1 µM): 0.3
relative viability ([11]; first compound 0.01 µM): 0.448
relative viability ([11]; first compound 0.03162 µM): 0.403
